Test results taken from PubChem BioAssay (NCI).
Values joined by “and” are separate entries in the source; they are usually repeats but may differ in a detail not shown here. Equal values may be shown once.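 Grown in 96-well plates, cells were treated for 48 hours with each compound at five concentrations. Insufficient inhibition: endpoint recorded as highest concentration tested. Abbreviation: GI50, concentration required for 50% inhibition of growth. TGI marks complete inhibition of growth.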

Key:
Assay in all cases: inhibition of tumour cell growth, NCI panel, 48 h
ACHN renal = system: ACHN renal
CCRF-CEM leukemia = system: CCRF-CEM leukemia
U251 CNS = system: U251 CNS
A549 NSCLC = system: A549 NSCLC
BT-549 breast = system: BT-549 breast
MOLT-4 leukemia = system: MOLT-4 leukemia
T-47D breast = system: T-47D breast
PC-3 prostate = system: PC-3 prostate
SF-295 CNS = system: SF-295 CNS
HCC-2998 colon = system: HCC-2998 colon
HCT-116 colon = system: HCT-116 colon
SF-539 CNS = system: SF-539 CNS
OVCAR-3 ovarian = system: OVCAR-3 ovarian
OVCAR-5 ovarian = system: OVCAR-5 ovarian
OVCAR-8 ovarian = system: OVCAR-8 ovarian

Row | Structure (SMILES) | TGI (ACHN renal) | TGI (CCRF-CEM leukemia) | TGI (U251 CNS) | TGI (A549 NSCLC) | TGI (BT-549 breast) | TGI (MOLT-4 leukemia) | TGI (T-47D breast) | TGI (PC-3 prostate) | TGI (SF-295 CNS) | TGI (HCC-2998 colon) | TGI (HCT-116 colon) | TGI (SF-539 CNS) | TGI (OVCAR-3 ovarian) | TGI (OVCAR-5 ovarian) | TGI (OVCAR-8 ovarian) | GI50 (SF-295 CNS)
1 | NC(=O)N(O)c1cccc(Br)c1 | > 100 µM | > 100 µM | > 100 µM | > 100 µM | > 100 µM | > 100 µM | > 100 µM | > 100 µM | > 100 µM | > 100 µM | > 100 µM | > 100 µM | > 100 µM | > 100 µM | > 100 µM | –
2 | Cc1cc(=Nc2ccc3c(c2)c(N)cc(C)[n+]3C)nc(N)n1C | > 100 µM | > 100 µM | > 100 µM | > 100 µM | > 100 µM | > 100 µM | > 100 µM | > 100 µM | > 100 µM | – | > 100 µM | > 100 µM | > 100 µM | > 100 µM | > 100 µM | –
3 | O=C1c2ccccc2C(=O)N1c1ccc(OCCN2CCCCC2)cc1 | > 100 µM | > 100 µM | > 100 µM | > 100 µM | > 100 µM | > 100 µM | > 100 µM | > 100 µM | > 100 µM | > 100 µM | > 100 µM | > 100 µM | > 100 µM | > 100 µM | > 100 µM | –
4 | c1ccc(-c2cc(-c3cc(-c4ccccc4)n(-c4ccccc4)n3)nn2-c2ccccc2)cc1 | > 100 µM | > 100 µM | > 100 µM | > 100 µM | > 100 µM | > 100 µM | > 100 µM | > 100 µM | > 100 µM | > 100 µM | > 100 µM | > 100 µM | > 100 µM | > 100 µM | > 100 µM | –
5 | C[C@@H]1CCC2[C@@H](C)C(=O)O[C@@H]3C4C[C@@H]1[C@@]23OO[C@@]4(C)O (some centres undefined) | > 100 µM | > 100 µM | > 100 µM | > 100 µM | > 100 µM | > 100 µM | > 100 µM | > 100 µM | > 100 µM | > 100 µM | > 100 µM | > 100 µM | > 100 µM | > 100 µM | > 100 µM | –
6 | C=CCn1c(=O)c(C)cn(/C(=C/C(=O)OCC)C(=O)OCC)c1=O | 21.2 µM | 5.42 µM | 28.4 µM | 87.5 µM | 30.2 µM | 21.2 µM | 30.7 µM | 28.9 µM | > 100 µM | 33.5 µM | 21.5 µM | 63.2 µM | 23.3 µM | 30.2 µM | 45.9 µM | –
7 | CC1=C(C(=O)OC(C)C)C(c2ccccc2[N+](=O)[O-])C(C(=O)OC(CO[N+](=O)[O-])CO[N+](=O)[O-])=C(C)N1 (centres undefined) | 23.7 µM | – | 13.4 µM | 12.9 µM | 26 µM | 5.9 µM | > 100 µM | 12.2 µM | 6.95 µM | 43 µM | 11.4 µM | – | 76.7 µM | > 100 µM | 22 µM | –
8 | O/N=C\c1cc(O)c(O)c(/C=N/O)c1 | 80.3 µM | > 100 µM | > 100 µM | > 100 µM | > 100 µM | > 100 µM | > 100 µM | > 100 µM | > 100 µM | – | > 100 µM | > 100 µM | > 100 µM | > 100 µM | > 100 µM | –
9 | COc1cc2c(cc1OC)CCN=C2 | – | > 100 µM | > 100 µM | – | > 100 µM | > 100 µM | > 100 µM | > 100 µM | > 100 µM | > 100 µM | > 100 µM | – | > 100 µM | > 100 µM | > 100 µM | –
10 | CC(C)(C)OC(=O)N1CCC23CCCC2C(=O)CC=C13 (centres undefined) | > 100 µM | > 100 µM | > 100 µM | > 100 µM | > 100 µM | > 100 µM | > 100 µM | > 100 µM | > 100 µM | > 100 µM | > 100 µM | > 100 µM | > 100 µM | > 100 µM | > 100 µM | –
11 | CO[C@H]1O[C@@H]2CO[C@@H](c3ccccc3)O[C@H]2C[C@]12CCC/C=C\CO2 | 35 µM | 36.5 µM | 23.5 µM | > 75 µM | 23.9 µM | 32 µM | 59.6 µM | 50.8 µM | > 75 µM | 54.5 µM | 23.5 µM | 29.1 µM | 24.6 µM | > 75 µM | 25.2 µM | –
12 | COC(=O)CCCCC/C(=C\C(=O)C(Cl)(Cl)Cl)OC | > 100 µM | > 100 µM | 90 µM | > 100 µM | > 100 µM | 60.1 µM | > 100 µM | 77.9 µM | > 100 µM | 35.6 µM | 49.6 µM | 44.4 µM | 70.4 µM | > 100 µM | 73.6 µM | –
13 | O=C(/C=C/c1ccc(O)c(O)c1)OCCOC(=O)/C=C/c1ccc(O)c(O)c1 | 85.8 µM | > 100 µM | 59.2 µM | > 100 µM | > 100 µM | 44.9 µM | 51.2 µM | 86.5 µM | 44.1 µM | > 100 µM | 46.7 µM | 52.6 µM | 39 µM | 65.8 µM | > 100 µM | –
14 | CC/C(Cl)=N\OC(=O)Nc1ccc(C#N)cc1 | 27.4 µM | 4.1 µM | 30.8 µM | 35.7 µM | 28.3 µM | 11 µM | 30.7 µM | 30.5 µM | 33 µM | 30.1 µM | 28.1 µM | 30.5 µM | 32.7 µM | 29.5 µM | 30.7 µM | –
15 | Cc1ccc(C2=Nc3c(N)nc(N)nc3NC(c3ccccc3)C2)cc1 (centres undefined) | 28.8 µM and 32 µM | 48.5 µM and 96.9 µM | 24.6 µM and 26.4 µM | 26.3 µM and 23.6 µM | 22 µM and 23.6 µM | 28.3 µM and 97.6 µM | 28.2 µM and 32.6 µM | 22.9 µM and 24 µM | 17.9 µM and 23.8 µM | 19.3 µM and 18.7 µM | 17.5 µM and 17.6 µM | 25.3 µM | 24.8 µM and 24.9 µM | 30.5 µM and 33.5 µM | 29.3 µM and 28.8 µM | 4.9 µM and 10.5 µM
